In US4510139A, “Substituted aminobenzamides and their use as agents which inhibit lipoxygenase activity” (Sterling Drug Inc., priority 1984, dated 1985):
Like-named read-outs stand apart in the source and are kept apart here.

Legend:
cyclooxygenase = biological target: T1, cyclooxygenase (Rattus norvegicus, UniProt Q63921); assay: Inhibition of cyclooxygenase derived from rat basophilic leukemia (RBL-1) cells, product C1 (PGD2); type: biochemical; details: for inhibition at 1 µM: dose of 1 μM
T1 construct: microsomal fraction containing lipoxygenase and cyclooxygenase; endogenous in cells; host or cells: RBL-1 (rat basophilic leukemia) cells, homogenate / microsomal fraction
T1 sequence (Q63921 27-602): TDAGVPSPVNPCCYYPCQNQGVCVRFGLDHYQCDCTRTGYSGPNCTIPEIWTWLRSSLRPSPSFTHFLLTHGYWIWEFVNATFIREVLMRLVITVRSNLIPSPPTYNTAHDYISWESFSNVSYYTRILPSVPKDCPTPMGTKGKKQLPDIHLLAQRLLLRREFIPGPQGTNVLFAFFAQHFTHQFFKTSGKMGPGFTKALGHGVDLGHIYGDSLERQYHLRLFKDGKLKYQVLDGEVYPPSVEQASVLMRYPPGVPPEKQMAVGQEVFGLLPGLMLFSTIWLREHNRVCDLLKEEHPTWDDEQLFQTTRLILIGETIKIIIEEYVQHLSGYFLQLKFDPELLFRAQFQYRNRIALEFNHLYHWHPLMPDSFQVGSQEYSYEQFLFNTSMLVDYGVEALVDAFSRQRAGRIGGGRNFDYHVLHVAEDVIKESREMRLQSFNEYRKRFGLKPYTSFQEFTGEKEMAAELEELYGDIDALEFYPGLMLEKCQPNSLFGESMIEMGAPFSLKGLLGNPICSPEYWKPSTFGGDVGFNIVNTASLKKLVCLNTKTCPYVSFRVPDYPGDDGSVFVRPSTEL
Description: (§1) The primary screening test used is a determination of the inhibition of lipoxygenase and cyclooxygenase derived from rat basophilic leukemia (RBL-1) cells. The test was carried out according to the following procedure:
(§2) Single cell suspensions of RBL-1 cells are homogenized to obtain the microsomal fraction containing lipoxygenase and cyclooxygenase. Test compounds are added to the enzyme-containing homogenate for a 5 min preincubation period at 37° C. prior to the addition of ^14 C-arachidonic acid substrate. Following incubation at 37° C. for 15 min, the reaction is stopped by the addition of 2M formic acid and the enzyme-substrate products are extracted into chloroform. An aliquot of the extract is evaporated to dryness, reconstituted in ether to 1/10 original volume, spotted in thin layer chromatography plates and chromatographed. The peak areas of radioactivity representing the products are located by scanning the plates. The quantity of products formed is estimated by measuring the height of the radioactivity peaks observed on the chromatographic scans. Alternatively, the areas of radioactivity are scraped from the plate and the ^14 C quantitated by scintillation counting.

lipoxygenase = biological target: T2, lipoxygenase (Rattus norvegicus, UniProt P12527); assay: Inhibition of lipoxygenase derived from rat basophilic leukemia (RBL-1) cells, products L1 (5,12-di-HETE) and L2 (5-HETE); type: biochemical; details: for inhibition at 10 µM: dose of 10 μM
T2 construct: microsomal fraction containing lipoxygenase and cyclooxygenase; endogenous in cells; host or cells: RBL-1 (rat basophilic leukemia) cells, homogenate / microsomal fraction
T2 sequence (P12527 1-673): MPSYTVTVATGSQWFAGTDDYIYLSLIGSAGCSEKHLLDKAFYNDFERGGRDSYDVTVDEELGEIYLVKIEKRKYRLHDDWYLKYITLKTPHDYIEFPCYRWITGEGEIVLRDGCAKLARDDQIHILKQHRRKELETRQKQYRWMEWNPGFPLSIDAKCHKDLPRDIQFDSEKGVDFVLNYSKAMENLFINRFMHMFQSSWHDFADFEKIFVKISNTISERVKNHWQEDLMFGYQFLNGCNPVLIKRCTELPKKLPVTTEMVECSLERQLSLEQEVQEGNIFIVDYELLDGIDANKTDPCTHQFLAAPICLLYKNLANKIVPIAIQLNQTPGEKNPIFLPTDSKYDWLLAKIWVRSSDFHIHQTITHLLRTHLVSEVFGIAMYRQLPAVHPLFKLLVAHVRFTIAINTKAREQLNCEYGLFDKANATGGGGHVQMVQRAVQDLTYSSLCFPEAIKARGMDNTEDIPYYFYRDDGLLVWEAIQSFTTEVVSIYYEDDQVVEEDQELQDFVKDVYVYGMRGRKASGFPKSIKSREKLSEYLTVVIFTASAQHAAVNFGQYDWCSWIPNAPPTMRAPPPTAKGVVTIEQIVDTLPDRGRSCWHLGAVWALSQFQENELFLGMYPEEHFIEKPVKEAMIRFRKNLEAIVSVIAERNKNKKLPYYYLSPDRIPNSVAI
Description: as §1, §2

[1] = read-out: % Inhibition of cyclooxygenase (C1) formation
[2] = read-out: % Inhibition of lipoxygenase (L1) formation
[3] = read-out: % Inhibition of lipoxygenase (L2) formation
[4] = dose of 1 μM, L1 = 5,12-di-HETE, read-out: % Inhibition of lipoxygenase (L1) formation
[5] = dose of 1 μM, L2 = 5-HETE, read-out: % Inhibition of lipoxygenase (L2) formation

SMILES	inhibition at 10 µM (cyclooxygenase; dose of 10 μM, read-out: % Inhibition of cyclooxygenase (C1) formation)	inhibition at 10 µM (lipoxygenase; L1 = 5,12-di-HETE, read-out: % Inhibition of lipoxygenase (L1) formation)	inhibition at 10 µM (lipoxygenase; L2 = 5-HETE, read-out: % Inhibition of lipoxygenase (L2) formation)	inhibition at 1 µM (lipoxygenase; [4])	inhibition at 1 µM (lipoxygenase; [5])	IC50 (cyclooxygenase)	inhibition at 1 µM (cyclooxygenase; [1])	IC50 (lipoxygenase; IC50 L1, L1 = 5,12-di-HETE)	IC50 (lipoxygenase; IC50 L2, L2 = 5-HETE)	inhibition at 1 µM (lipoxygenase; [2])	inhibition at 1 µM (lipoxygenase; [3])
NC(=O)c1ccccc1Nc1ccc(O)cc1 [Example 3(b), 2-(4-Hydroxyphenylamino)benzamide]						> 1000 nM	14%	310 nM	150 nM	78%	83%
COc1ccc(Nc2ccc(O)cc2)c(C(=O)N2CCCCC2)c1 [Example 23(b), 1-[2-(4-Hydroxyphenylamino)-5-methoxybenzoyl]piperidine]						> 1000 nM	19%	540 nM	610 nM	89%	96%
O=C(NC1CCCCC1)c1ccccc1Nc1ccc(O)cc1 [Example 12(b), N-Cyclohexyl-2-(4-hydroxyphenylamino)benzamide]						> 1000 nM	0%	120 nM	110 nM	80%	94%
COc1ccc(Nc2ccc(O)cc2)c(C(=O)NCc2ccccc2)c1 [Example 22(d), 2-(4-Hydroxyphenylamino)-N-benzyl-5-methoxybenzamide]						> 1000 nM	0%	300 nM	260 nM	81%	97%
CCCN(CC)C(=O)c1ccccc1Nc1ccc(O)cc1 [Example 14(b), 2-(4-Hydroxyphenylamino)-N-ethyl-N-propylbenzamide]						> 1000 nM	0%	180 nM	110 nM	78%	95%
CC1CCN(C(=O)c2ccccc2Nc2ccc(O)cc2)CC1 [Example 6(b), 1-[2-(4-Hydroxyphenylamino)benzoyl]-4-methylpiperidine]				54%	77%		7%				
CCCNC(=O)c1ccccc1Nc1ccc(O)cc1 [Example 5(b), 2-(4-Hydroxyphenylamino)-N-propylbenzamide]						> 1000 nM	6%	130 nM	110 nM	62%	85%
O=C(c1ccccc1Nc1ccccc1O)N1CCCCC1 [Example 15(d), 1-[2-(2-Hydroxyphenylamino)benzoyl]piperidine]						> 1000 nM	2%	720 nM	180 nM	58%	80%

Continued, in another order:

inhibition at 10 µM (cyclooxygenase; dose of 10 μM, read-out: % Inhibition of cyclooxygenase (C1) formation)	inhibition at 10 µM (lipoxygenase; L1 = 5,12-di-HETE, read-out: % Inhibition of lipoxygenase (L1) formation)	inhibition at 10 µM (lipoxygenase; L2 = 5-HETE, read-out: % Inhibition of lipoxygenase (L2) formation)	inhibition at 1 µM (lipoxygenase; [4])	inhibition at 1 µM (lipoxygenase; [5])	SMILES	IC50 (cyclooxygenase)	inhibition at 1 µM (cyclooxygenase; [1])	IC50 (lipoxygenase; IC50 L1, L1 = 5,12-di-HETE)	IC50 (lipoxygenase; IC50 L2, L2 = 5-HETE)	inhibition at 1 µM (lipoxygenase; [2])	inhibition at 1 µM (lipoxygenase; [3])
42%	47%	56%			O=C(c1ccccc1Nc1cccc(O)c1)N1CCCCC1 [Example 24(d), 1-[2-(3-Hydroxyphenylamino)benzoyl]piperidine]						
			23%	48%	CNC(=O)c1ccccc1Nc1ccc(O)cc1 [Example 7(b), 2-(4-Hydroxyphenylamino)-N-methylbenzamide]		2%				
			24%	42%	O=C(c1ccc(Cl)cc1Nc1ccc(O)cc1)N1CCCC1 [Example 19(d), 1-[4-Chloro-2-(4-hydroxyphenylamino)benzoyl]pyrrolidine]		7%				
			33%	63%	CCN(CC)C(=O)c1ccccc1Nc1ccc(O)cc1 [Example 8(b), N,N-Diethyl-2-(4-hydroxyphenylamino)benzamide]		0%				
			34%	56%	CN(C)C(=O)c1ccccc1Nc1ccc(O)cc1 [Example 10(b), 2-(4-Hydroxyphenylamino)-N,N-dimethylbenzamide]		1%				
			56%	73%	CCN(CC)C(=O)c1cc(Cl)ccc1Nc1ccc(O)cc1 [Example 17(d), 5-Chloro-N,N-diethyl-2-(4-hydroxyphenylamino)benzamide]		0%				
			63%	75%	O=C(c1cc(Cl)ccc1Nc1ccc(O)cc1)N1CCCCC1 [Example 18(b), 1-[5-Chloro-2-(4-hydroxyphenylamino)benzoyl]piperidine]		16%				
